Results published in US20130189382A1, “Use of fucoxanthin in the preparation of product for improving memory and having neuroprotective effect associated with neurodegenerative disorder” (Beijing Gingko Group Biological Technology Co., Ltd., priority 2010, published 2013).
Marks after values point to notes of the source that are not given here.

Experiments:
[1] = tested on: rat brain cortical neurons induced by Aβ25-35; assay: Cell survival rate by MTT method in neurons damaged by Aβ25-35; assay type: cell-based; conditions: control = 100%
Description: 1) kill zero to four-day old neonatal rats, immerse the rats in 75% alcohol for 2 to 3 seconds, put the rats in a sterile culture dish, take their brains, and place the brains in a sterile culture dish containing cold D-Hanks liquid, remove meninges and blood vessels, and isolate the cerebral cortex.
2) place the isolated tissues in a sterile culture dish containing a proper amount of 0.125% trypsin solution, cutting up the tissues into a size of about 0.5 mm*0.5 mm*0.5 mm, and place them for 5 minutes at room temperature.
3) transfer the tissue blocks to a 15 ml centrifugal tube, add a proper amount of DMEM-F12 culture medium containing 10% bovine serum to terminate digestion, blow gently with a bend suction pipe to obtain a single cell suspension.
4) filter the cells with a 400-mesh cell strainer.
5) perform centrifugation at 1000 rpm for 5 minutes, discard the supernatant, add a D-Hanks liquid to wash the cells, perform centrifugation at 1000 rpm for 5 minutes and discard the supernatant.
6) add a proper amount of DMEM-F12 culture medium containing 10% bovine serum, count the cells, according to a concentration of 1*10^5 cells/ml, inoculate cells in a 96-pore plate or a 24-pore plate, which applied with 10 μg/ml of polylysine as a basic layer, place the plate in a CO2 incubator and culture at 37 °C in a CO2 concentration of 5%.
7) 24 hours later, replace the culture medium with a DMEM-F12 culture medium containing 5 mg/L cytarabine and 10% bovine serum; 24 hours later, replace the culture medium with a DMEM-F12 culture medium containing 2% B-27 and 10% bovine serum; replace the culture medium with a DMEM-F12 culture medium containing 2% B-27 and 10% bovine serum every 2 days subsequently to change the solution.
A total of 8 experiment groups are set for cell survival rate detection, including a normal control group, a model group, 5 medicament groups of different concentrations (drug concentrations (the drug concentrations described herein refer to the dry weight of fucoxanthin): 0.39, 0.78, 1.56, 3.12 and 6.25 μg/ml) and a medicament control group (6.25 μg/ml). Other detection indexes: SOD, GSH-PX, T-AOC, MDA and cell morphological observation in which 5 experimental groups are set in total, including a normal control group, a model group and 3 medicament groups of different concentrations (drug concentrations: 0.39, 0.78 and 1.56 μg/ml).
Take cells cultured for 7 days, administer corresponding concentrations of the drug to the medicament groups, add an equal amount of a corresponding solvent to the control group and the model group, incubate for 16 hours, treat groups besides the control group with 5 μM of Aβ25-35 (pre-aged for 7 days at 37□) for 24 hours, take the cell culture medium to detect the T-AOC, the SOD, the MDA and the GSH-PX subsequently, and measure the cell survival rate by MTT method or perform morphological observation with a Hoechst/PI double staining experiment.
Determination of the cell survival rate by MTT method: culture the cells in a 96-pore plate, administer the drug to protect the cells for 16 hours, after damaging the cells by Aβ25-35 for 24 hours, add 5 mg/ml of MTT to the culture medium, continue to culture for 4 hours, terminate the culture, remove the culture medium through careful suction, add 200 μl of dimethyl sulfoxide to each pore, measure the absorbance of each pore at Optical Density (OD) 490 nm with an enzyme-labeled instrument after the crystals are completely dissolved and calculate the cell survival rate by taking the control group as 100%.

[2] = tested on: rat brain cortical neurons induced by Aβ25-35; assay: SOD activity in culture medium of neurons damaged by Aβ25-35; assay type: cell-based
Excerpt: Aβ25-35 and MTT, purchased from Sigma Company; T-AOC assay kit, MDA assay kit, GSH-PX assay kit and SOD assay kit, purchased from Nanjing Jiancheng Bioengineering Institute; and cell apoptosis fluorescent Hoechst33342/PI double staining reagent kit purchased from Nanjing KeyGEN Biotech Co., Ltd. […] Other detection indexes: […] Three experiments of different samples were repeated to detect each index of this experiment (except the Hoechst/PI double staining experiment and the experiment of cell morphological observation), and all results are obtained via the results of three experiments by using statistical analysis. The SOD activity can reflect ability of organisms to remove ROS indirectly. The influence of the reference substance A (A) and the coarse extracts thereof FX-01 powder (Fx-powder) and Fx-01 oil (Fx-oil) on the SOD activity in the culture medium of the rat brain cortical neuron model induced by Aβ25-35 is detected and the result is as shown in Table 2. […] The SOD activity is improved with the increase of drug concentrations.

[3] = tested on: rat brain cortical neurons induced by Aβ25-35; assay: GSH-PX activity in culture medium of neurons damaged by Aβ25-35; assay type: cell-based
Excerpt: Aβ25-35 and MTT, purchased from Sigma Company; T-AOC assay kit, MDA assay kit, GSH-PX assay kit and SOD assay kit, purchased from Nanjing Jiancheng Bioengineering Institute; and cell apoptosis fluorescent Hoechst33342/PI double staining reagent kit purchased from Nanjing KeyGEN Biotech Co., Ltd. […] Other detection indexes: […] Three experiments of different samples were repeated to detect each index of this experiment (except the Hoechst/PI double staining experiment and the experiment of cell morphological observation), and all results are obtained via the results of three experiments by using statistical analysis. Detect the influence of the reference substance A (A) and the coarse extracts thereof FX-01 powder (Fx-powder) and Fx-01 oil (Fx-oil) on the GSH-PX activity in the culture medium of the rat brain cortical neuron model induced by Aβ25-35, and the result is as shown in Table 3.

[4] = tested on: rat brain cortical neurons induced by Aβ25-35; assay: T-AOC in culture medium of neurons damaged by Aβ25-35; assay type: cell-based
Excerpt: Aβ25-35 and MTT, purchased from Sigma Company; T-AOC assay kit, MDA assay kit, GSH-PX assay kit and SOD assay kit, purchased from Nanjing Jiancheng Bioengineering Institute; and cell apoptosis fluorescent Hoechst33342/PI double staining reagent kit purchased from Nanjing KeyGEN Biotech Co., Ltd. […] Other detection indexes: […] Three experiments of different samples were repeated to detect each index of this experiment (except the Hoechst/PI double staining experiment and the experiment of cell morphological observation), and all results are obtained via the results of three experiments by using statistical analysis. The T-AOC can be measured to evaluate the antioxidant capacity of the total antioxidant substances in the system. […] The protective effect of the Fx-powder is improved with the increase of the drug concentrations. However, A and the Fx-oil are not dose-dependent although they can improve the T-AOC.

[5] = tested on: rat brain cortical neurons induced by Aβ25-35; assay: MDA content in culture medium of neurons damaged by Aβ25-35; assay type: cell-based
Excerpt: Aβ25-35 and MTT, purchased from Sigma Company; T-AOC assay kit, MDA assay kit, GSH-PX assay kit and SOD assay kit, purchased from Nanjing Jiancheng Bioengineering Institute; and cell apoptosis fluorescent Hoechst33342/PI double staining reagent kit purchased from Nanjing KeyGEN Biotech Co., Ltd. […] Other detection indexes: […] Three experiments of different samples were repeated to detect each index of this experiment (except the Hoechst/PI double staining experiment and the experiment of cell morphological observation), and all results are obtained via the results of three experiments by using statistical analysis. ROS is generated by organisms through the enzyme system and the non-enzyme system and the ROS is able to attack polyunsaturated fatty acids in biological membranes, and initiate lipid peroxidation to form lipid peroxides, such as MDA. Therefore, the amount of MDA can reflect the degree of lipid peroxidation in organisms, thereby indirectly reflecting the damage degree of cells attacked by free radicals. […] The Fx-powder can reduce the MDA content in the culture medium of the damaged neurons remarkably and is dose-dependent, and the protective effect of the Fx-powder increases with the increase of drug concentrations. The Fx-oil also has such effect to protect neurons from oxidative damage and is not evidently dose-dependent. The reference substance A presents certain protective effect at a low dose, but the effect is seemingly reversed at medium and high doses, along with an increase in the MDA content. However, there is no statistical difference compared with the model group.

[6] = tested on: rat brain cortical neurons induced by Aβ25-35; assay: Neuron morphological detection by Hoechst/PI double staining; assay type: cell-based; conditions: compared with model group, FIG. 1
Description: The anti-AD activity of fucoxanthin is evaluated by detecting indexes including cell survival rate (MTT), cytomorphology, SOD, GSH-PX, T-AOC and MDA etc. SOD plays an important role in the balance between oxidation and anti-oxidization of organisms. The enzyme is able to remove superoxide anion free radicals and protect cells from damage, and the activity of the enzyme indirectly reflects the ability of organisms to remove ROS. GSH-PX, which is an important enzyme for catalyzing the decomposition of hydrogen peroxide in the body, is able to protect the integrity of cellular membrane structures and functions. The T-AOC can be measured to evaluate the antioxidant capacity of the total anti-oxidant substances in a system. The quantity of MDA reflects the degree of lipid peroxidation in organisms and may indirectly reflect the damage level of cells attacked by free radicals. Hoechst/Propidium Iodide (PI) double staining is applied to cell morphological observation: both PI and Hoechst33342 can bonde with cell nuclear Deoxyribonucleic Acid (DNA) (or Ribonucleic Acid (RNA)). However, PI fails to get through normal cellular membranes while Hoechst is a membrane-permeable fluorescent dye. Therefore, necrotic cells or cells whose cellular membranes are damaged during late apoptosis are stained red by PI while normal cells and cells in early apoptosis or mid-apoptosis are stained blue by Hoechst. However, nucleolus of apoptotic cell present a bright blue color due to concentration. Normal cells (blue), apoptotic cells (bright blue) and necrotic cells (red) can be distinguished according to different colors. However, the accompanying drawings in the specification are colorless, thus the colors are replaced by hollow rounds (blue), grey rounds (bright blue) and black rounds (red). […] Other detection indexes: […] […]

[7] = tested on: memory acquisition of mice; assay: Step-down test, memory acquisition of mice; assay type: in vivo; conditions: 0.42 mg/kg·bw by lavage for 30 days
Description: (§1) 1.1 Material: pure fucoxanthin prepared by our company, and the recommended daily intake for a mouse is equal to the daily dose 4 mg of the human body, male Kuming mice, 6 to 8 weeks old, bodyweight ranging from 18 to 22 g.
(§2) 1.2 dose and group: take the daily dose, i.e. 4 mg of fucoxanthin of the human body as a dose group, turn the dose into the daily dose of the mice, and set a blank control group.
1.51 Step-down test: select 20 male mice with a bodyweight of 18 to 22 g, randomly divide the mice into a blank control group and a medication group, administer fucoxanthin to the medication group by lavage, conduct step-down training to the mice after administering the sample to the mice continuously for 30 days, put the animals in a reaction tank for adaption for 3 minutes, introduce a 36V alternating current, and the normal reaction of the animals was to jump back to the insulated platform quickly. Most of the animals might jump onto the copper grids again or jump onto the copper grids for multiple times, and jump back onto the platform after receiving electric shocks. After training once, the animals were placed on the platform in the reaction tank, record the number of electric shocks (number of errors) received by each mouse within 5 minutes as the learning performance, retest 24 hours later, and record the number of animals that received the electric shocks, the latency for the animals to step down the platform for the first time, and number of errors within 3 minutes.
(§3) 1.6 Data processing: process the obtained data by utilizing an SPSS1010 statistic software package and employ analysis of variance and X^2 test in the statistic method. […]

[8] = tested on: memory acquisition of mice; assay: Step-through test, memory acquisition of mice; assay type: in vivo; conditions: 0.42 mg/kg·bw for 30 days
Description: as §1, §2
1.52 Step-through test: the selection of animals, the grouping in the test, the doses for the tested objects, the administration methods and the administration time are the same as those in the step-down test, and step-through training was conducted after administering the samples continuously for 30 days. During the experiment, make the mice face back to the entrance of a bright room and put the mice into the bright room, start a timer, the animals passed through the entrance, entered the […] and received electric shocks, stop the timer, take out the mice and record the time needed for each mouse to be put into the bright room and enter a dark room to receive the electric shocks, i.e. the latency, repeat the test 24 hours later at the same time, and record the latency for each mouse to enter the dark room, the number of errors within 5 minutes, and the number of animals that entered the dark room.
as §3

rat embryo neuron = conditions: literature 2001-335480A published in Japan; cited from earlier work

CC(=O)O[C@H]1CC(C)(C)C(=C=C/C(C)=C/C=C/C(C)=C/C=C/C=C(C)/C=C/C=C(\C)C(=O)C[C@@]23O[C@]2(C)C[C@@H](O)CC3(C)C)[C@](C)(O)C1 [A, fucoxanthin]
Cell survival rate (%) ([1]; 0.39 μg/ml, drug 16 h then 5 μM Aβ25-35 24 h): 98.45 ± 15.89 % | Cell survival rate (%) ([1]; 0.78 μg/ml, drug 16 h then 5 μM Aβ25-35 24 h): 92.36 ± 17.79% | Cell survival rate (%) ([1]; 1.56 μg/ml, drug 16 h then 5 μM Aβ25-35 24 h): 98.99 ± 9.52 % | Cell survival rate (%) ([1]; 3.12 μg/ml, drug 16 h then 5 μM Aβ25-35 24 h): 100.98 ± 8.74 % | Cell survival rate (%) ([1]; 6.25 μg/ml, drug 16 h then 5 μM Aβ25-35 24 h): 103.31 ± 11.93 % | Cell survival rate (%) ([1]; medicament control group (6.25 μg/ml)): 104.47 ± 20.70% | SOD (U/ml) ([2]; 0.39 μg/ml): 15.38 ± 0.71 U/ml | SOD (U/ml) ([2]; 0.78 μg/ml): 15.72 ± 0.87 U/ml | SOD (U/ml) ([2]; 1.56 μg/ml): 15.77 ± 0.83 U/ml | GSH-PX (U/ml) ([3]; 0.39 μg/ml): 38.17 ± 6.84 U/ml | GSH-PX (U/ml) ([3]; 0.78 μg/ml): 61.50 ± 51.62 U/ml | GSH-PX (U/ml) ([3]; 1.56 μg/ml): 34.00 ± 5.29 U/ml | T-AOC (U/ml) ([4]; 0.39 μg/ml): 1.50 ± 0.54 U/ml | T-AOC (U/ml) ([4]; 0.78 μg/ml): 1.26 ± 0.37 U/ml | T-AOC (U/ml) ([4]; 1.56 μg/ml): 1.12 ± 0.13 U/ml | MDA ([5]; 0.39 μg/ml): 5.12 ± 1.17 µmol/mL | MDA ([5]; 0.78 μg/ml): 14.62 ± 3.82 µmol/mL | MDA ([5]; 1.56 μg/ml): 12.34 ± 1.58 µmol/mL | Morphological detection: apoptotic and necrotic cells ([6]; 0.39 μg/ml): slight decrease in the necrotic cells | Morphological detection: apoptotic and necrotic cells ([6]; 0.78 μg/ml): The apoptotic cells and the necrotic cells decrease | Morphological detection: apoptotic and necrotic cells ([6]; 1.56 μg/ml): The apoptotic cells and the necrotic cells decrease | Error response rate (%) Training [7]: 100% | Error response rate (%) Test ([7]; retest 24 h later): 50% | Latency Test ([7]; retest 24 h later): 136.2 ± 25.6 s | Number of errors Test ([7]; retest 24 h later, within 3 minutes): 0.3 ± 0.31 | Number of errors Training ([7]; within 5 minutes): 1.1 ± 0.56 | Error response rate (%) [8]: 50** % | Latency (seconds) Training [8]: 40.2 ± 6.5 s | Latency (seconds) Test ([8]; test 24 h later): 240.4 ± 43.2 s | Number of errors Test ([8]; within 5 minutes): 0.4 ± 0.3 | Effect on rat embryo neuron injuries caused by cerebral ischemia-reperfusion (rat embryo neuron): can inhibit rat embryo neuron injuries caused by cerebral ischemia-reperfusion
